Biological target: T1, sigma-1 receptor (Cavia porcellus, UniProt Q60492)
T1 construct: guinea pig brains were homogenized; from tissue; host or cells: guinea pig brain membranes
Experiment: Sigma-1 receptor binding ([3H]-(+)-pentazocine, brain membranes)
Settings: [3H]-(+)-pentazocine 0.5 nM, guinea pig brain membranes
Description: Brain membrane preparation and binding assays for the sigma-1 receptor were performed as described (DeHaven-Hudkins et al., Characterization of the binding of [^3H]-(+)-pentazocine to recognition sites in guinea pig brain, Eur. J. Pharmacol. 227, 371-378) with some modifications.
In brief, guinea pig brains were homogenized in 10 vols. (w/v) of Tris-HCl 50 mM, 0.32 M sucrose, pH 7.4, with a Kinematica Polytron PT 3000 at 15000 r.p.m. for 30 s. The homogenate was centrifuged at 1000 g for 10 min at 4° C. and the supernatants collected and centrifuged again at 48000 g for 15 min at 4° C. The pellet was resuspended in 10 volumes of Tris-HCl buffer (50 mM, pH 7.4), incubated at 37° C. for 30 min, and centrifuged at 48000 g for 20 min at 4° C. Following this, the pellet was resuspended in fresh Tris-HCl buffer (50 mM, pH 7.4) and stored on ice until use.
Each assay tube contained 10 μL of [^3H]-(+)-pentazocine (final concentration of 0.5 nM), 900 μL of the tissue suspension to a final assay volume of 1 mL and a final tissue concentration of approximately 30 mg tissue net weight/mL. Non-specific binding was defined by addition of a final concentration of […] haloperidol. All tubes were incubated at 37° C. for 150 min before termination of the reaction by rapid filtration over Schleicher & Schuell GF 3362 glass fibre filters [previously soaked in a solution of 0.5% polyethylenimine for at least 1 h]. Filters were then washed with four times with 4 mL of cold Tris-HCl buffer (50 mM, pH 7.4). Following addition of scintillation cocktail, the samples were allowed to equilibrate overnight. The amount of bound radioactivity was determined by liquid scintillation spectrometry using a Wallac Winspectral 1414 liquid scintillation counter. Protein concentrations were determined by the method of Lowry et al. (Protein measurement with the Folin phenol reagent, J. Biol. Chem, 193, 265).
The binding of the compounds of the present invention to sigma-1 receptors was tested as described above.

T1 sequence (Q60492 whole entry): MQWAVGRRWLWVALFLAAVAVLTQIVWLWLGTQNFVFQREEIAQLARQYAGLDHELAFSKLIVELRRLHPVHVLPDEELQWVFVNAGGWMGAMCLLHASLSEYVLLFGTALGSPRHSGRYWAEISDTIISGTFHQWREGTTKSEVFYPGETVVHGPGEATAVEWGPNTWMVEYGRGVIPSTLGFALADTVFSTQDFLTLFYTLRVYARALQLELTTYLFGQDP

Structure (SMILES): CC1(C)[C@@H](CCN2CCc3ccccc3C2)C[C@H]1CN1CCCCC1 [compound 54]
- Ki: 11.7 nM
- inhibition at 0.01 µM (compound concentration 0.0100 μM, read-out: Percent Inhibition Percent Concentration (μM) 0.0100 SIGMA-1 receptor): 42.2%
- inhibition at 0.1 µM (compound concentration 0.1000 μM, read-out: Percent Inhibition Percent Concentration (μM) 0.1000 SIGMA-1 receptor): 87.1%
